{"source": "patent US20240350476A1", "about": "(priority 2023, published 2024)", "key": {"[1]": {"conditions": "measured approximately 1 minute after placing the pouch adjacent to the gum line; five blindfolded volunteer subjects, one-hour break between tests", "experimental": "Five volunteer subjects compared the effects of nicotine consumption and 6-methylnicotine consumption on blood pressure Subjects were blindfolded and had their blood pressure measured before using a pouch (to provide a baseline blood pressure) and re-measured approximately 1 minute after placing a nicotine pouch or a 6-methylnicotine pouch adjacent to the gum line. All subjects performed the test with a nicotine pouch and with a 6-methylnicotine pouch on the same day with a one-hour break between the tests."}, "[2]": {"experimental": "Six volunteer subjects who are regular users of nicotine pouches containing 8 mg of nicotine were each administered an oral pouch of the disclosure containing 3 mg of 6-methylnicotine. Each subject used the 6-methylnicotine pouch in the same manner as a nicotine pouch, by placing the pouch inside the mouth and adjacent to the lip and gum."}, "[3]": {"conditions": "oral dissolvable film containing 1.6 mg of 6-methylnicotine, placed inside the cheek, compared to a film containing 2 mg of nicotine; four volunteer subjects, self-reported", "experimental": "Four volunteer subjects were provided with an oral dissolvable film according to the disclosure containing 1.6 mg of 6-methylnicotine and an oral dissolvable film containing 2 mg of nicotine. Each subject placed the nicotine strip against the inside of their cheek and noted their physiological response. Subjects abstained from nicotine or tobacco usage for 1 hour after consuming the nicotine strip, then placed the 6-methylnicotine strip according to the disclosure against the inside of their cheek and noted their physiological response."}}, "data": [{"smiles": "Cc1ccc([C@@H]2CCCN2C)cn1", "note": "(stereo in doubt) [6-methylnicotine]", "values": [{"measurement": "blood pressure following usage of a 6-methylnicotine pouch versus a nicotine pouch", "setting": "[1]", "value": "No significant difference"}, {"measurement": "physiological effect, such as a \"head rush\" experienced during pouch usage", "setting": "[2]; in vivo, po", "value": "more potent physiological effect"}, {"measurement": "desire to use nicotine- or tobacco-based products after use of the pouch", "setting": "[2]; oral pouch containing 3 mg of 6-methylnicotine, six volunteer subjects who regularly use 8 mg nicotine pouches, self-reported", "value": "zero desire to use nicotine- or tobacco-based products"}, {"measurement": "physiological response (as a perceived \"head rush\")", "setting": "[3]", "value": "stronger physiological response"}]}]}
